Experimental findings from ChEMBL document CHEMBL3045355, “Synthesis of a New Series of 4-Aryl-1,4-Dihydropyridines with Calcium Channel Blocking and Vasodilatory Activity” (Med Chem Res, 2012) are described below.

Experiment [1] has as its target T1, Voltage-gated L-type calcium channel (Rattus norvegicus, UniProt P22002+Q02485+P27732). As to the kind of experiment: Inhibition of L-type calcium channel in neonatal rat cortical neurons assessed as inhibition of veratridine-induced intracellular calcium level incubated for 30 min followed by veratridine induction for 2 min by fluorimetric analysis. In kind it is cell-based. (In general: Calcium flux is commonly read through the fluorescence of an indicator in the cells.)

Experiment [2] concerns the target T1, Voltage-gated L-type calcium channel. The experiment can be described thus: Inhibition of L-type calcium channel in Rattus norvegicus Wistar (rat) thoracic aorta assessed as relaxation of phenylephrine-induced vasoconstriction after 30 min relative to control. Format: tissue-based.
Experiment [3] has the same target. The experiment can be described thus: Inhibition of L-type calcium channel in Rattus norvegicus Wistar (rat) thoracic aorta assessed as relaxation of KCl-induced vasoconstriction after 30 min relative to control. Format: tissue-based.

Turning to `COC(=O)COc1cccc(C2C(C(=O)OC)=C(C)NC(C)=C2C(=O)OC)c1`, in experiment [1], the IC50 amounted to 10 µM. Moreover, in experiment [2], the IC50 came to 1.44 µM and the pIC50 is reported as 5.84.

In the case of `COC(=O)C1=C(C)NC(C)=C(C(=O)OC)C1c1ccc(OCC(=O)n2ccnc2)c(OC)c1`, the half-maximal inhibitory concentration (IC50) in experiment [1] stood at 10.1 µM.

Turning to `COC(=O)COc1ccc(C2C(C(=O)OC)=C(C)NC(C)=C2C(=O)OC)cc1`, in experiment [1], the IC50 worked out at 2.1 µM.

`COC(=O)C1=C(C)NC(C)=C(C(=O)OC)C1c1cccc(OCC(=O)N2CCN(C)CC2)c1`: in experiment [1], the IC50 stood at 10 µM. In experiment [2], the IC50 was 9.54 µM and the pIC50 is on record as 5.02.

Regarding `CCOC(=O)C1=C(C)NC(C)=C(C(=O)OC)C1c1ccc(OCC(=O)OC)c(OC)c1` (configuration not stated), in experiment [3], the IC50 came to 12.8 µM and the pIC50 amounted to 4.89.

Consider `COC(=O)C1=C(C)NC(C)=C(C(=O)OC)C1c1ccc(OCC(=O)N2CCCC2)c(OC)c1`, for which the IC50 in experiment [1] was 5.6 µM; in experiment [2] it was 0.83 µM. In addition, the pIC50 in experiment [2] is reported as 6.08.

Take `CCOC(=O)C1=C(C)NC(C)=C(C(=O)OC)C1c1cccc(OCC(=O)N2CCCCC2)c1` (configuration not stated): in experiment [3], the concentration for half-maximal inhibition (IC50) worked out at 1.25 µM and the pIC50 stood at 5.9.

With `COC(=O)C1=C(C)NC(C)=C(C(=O)OC)C1c1cccc(OCC(=O)N2CCCC2)c1`, the figures for the IC50 in experiment [1] and in experiment [2] were 3.6 µM and 4.57 µM, respectively. Moreover, the pIC50 in experiment [2] came out at 5.34.

Turning to `COC(=O)C1=C(C)NC(C)=C(C(=O)OC)C1c1ccc(OCC(=O)N2CCN(C)CC2)c(OC)c1`, the figures for the IC50 in experiment [1] and in experiment [2] were 9.1 µM and 6.91 µM, respectively. Moreover, in experiment [2], the pIC50 is 5.16.

`COC(=O)C1=C(C)NC(C)=C(C(=O)OC)C1c1ccc(OCC(=O)N2CCCC(C)C2)c(OC)c1` (configuration not stated): in experiment [1], the IC50 worked out at 10 µM. For the same compound, in experiment [2], the IC50 worked out at 1.73 µM and the pIC50 is on record as 5.76.

In the case of `COC(=O)C1=C(C)NC(C)=C(C(=O)OC)C1c1cccc(OCC(=O)N2CCOCC2)c1`, the IC50 in experiment [1] turned out to be 9.9 µM. In experiment [2], the IC50 was found to be 0.64 µM and the pIC50 is reported as 6.19.

With `COC(=O)C1=C(C)NC(C)=C(C(=O)OC)C1c1ccc(OCC(=O)NC(C)(C)C)c(OC)c1`, the IC50 in experiment [1] was 2.5 µM.

Consider `CCOC(=O)C1=C(C)NC(C)=C(C(=O)OC)C1c1ccc(OCC(=O)N2CCCCC2)c(OC)c1` (configuration not stated), for which, in experiment [3], the IC50 turned out to be 3.89 µM and the negative logarithm of the IC50 (pIC50) was 5.41.

In the case of `COC(=O)C1=C(C)NC(C)=C(C(=O)OC)C1c1ccc(OCC(=O)N2CCCCC2)c(OC)c1`, the IC50 in experiment [1] came to 10 µM.

Consider `COC(=O)C1=C(C)NC(C)=C(C(=O)OC)C1c1cccc(OCC(=O)N2CCCCC2)c1`, for which the IC50 in experiment [1] stood at 10 µM.

One may read the IC50 as the point on the concentration scale where inhibition reaches its midpoint. For orientation: pIC50 means −log10 of the IC50, conventionally taken in molar units.
